What was measured:
sPLA2 (h) (type V) = sPLA2 (h) (type V) (Homo sapiens (Human), UniProt P39877); test: Cerep enzyme inhibition screen: sPLA2; format: biochemical; conditions: mean of two determinations, read-out: Inhibitory activity (% Inh. at 10 μM), mean
Source text: (§1) Compound of Example 25 falling in both Formula (I) and (Ia) was selected to be tested for off-target effects on a set of enzymes that include proteases (aspartic, cysteine, and serine), cyclooxygenases as well as lipoxygenases and group IV phospholipase (sPLA2) (Table 3). [table]

COX1 (h) = COX1 (h) (Homo sapiens (Human), UniProt P23219); test: Cerep enzyme inhibition screen: COX1; format: biochemical; conditions: mean of two determinations, read-out: Inhibitory activity (% Inh. at 10 μM), mean
Source text: as §1

caspase-3 (h) = caspase-3 (h) (Homo sapiens (Human), UniProt P42574); test: Cerep enzyme inhibition screen: caspase-3; format: biochemical; conditions: mean of two determinations, read-out: Inhibitory activity (% Inh. at 10 μM), mean
Source text: as §1

[1] = tested on: proteases (aspartic, cysteine, and serine), cyclooxygenases, lipoxygenases and group IV phospholipase (sPLA2); test: off-target test on a set of enzymes (overall statement); format: biochemical; conditions: 10 μM
Source text: as §1

AC [2] = target: T1, AC (Homo sapiens (Human), UniProt Q13510); test: AC activity in A375 human melanoma cells; format: cell-based; conditions: 25 μM, evident at 30 minutes, lasted up to 3 hours
Description: (§2) Specifically, FIG. 1 evidences the effects of compound of Example 7 or vehicle (0.1% DMSO in DMEM) on AC activity and ceramide levels in A375 (left panel) or MeWo (right panel) human melanoma cell lines. (A-B) Intact cells were treated with compound of Example 7 (25 μM) or vehicle and AC activity was measured 30 minutes or 3 hours later in cell lysates. (B) Intact cells were exposed to compound of Example 7 (25 μM) for 2 hours or 24 hours and medium chain ceramides (C-D), long chain ceramides (E-F) and dihydroceramides (G-H) were quantified. Results are expressed as mean±s.e.m. (n=3). *p<0.05, **p<0.01, ***p<0.001 vs vehicle, two-way ANOVA followed by Dunnet.
(§3) hAC protein preparation (10 μg) was preincubated with inhibitors (final DMSO concentration 1%) in assay buffer (100 mM sodium phosphate, 0.1% Nonidet P-40, 150 mM NaCl, 3 mM DTT, 100 mM sodium citrate, pH 4.5) for 30 min at 37° C. Reactions were started by the addition of 50 μM N-lauroyl ceramide (Nu-Chek Prep, Elysian, Minn.) and carried on for 30 min at 37° C. […] The organic phases were collected, dried under nitrogen and analyzed by UPLC/MS (Acquity, Waters). […]
(§4) The [M−H]^− ion was monitored in the selected-ion monitoring mode (m/z values: lauric acid 199, 11-lauroleic acid 197.35). […] Inhibition of AC activity was calculated as reduction of lauric acid in the samples compared to vehicle controls. […]

AC [3] = target: T1, AC; test: AC activity in MeWo human melanoma cells; format: cell-based; conditions: 25 μM, evident at 30 minutes, lasted up to 3 hours
Description: as §2, §3, §4

MeWo cells = test: ceramide levels in MeWo human melanoma cells; format: cell-based; conditions: 25 μM
Description: as §2
Lipids were extracted from mouse tissue lysate with a chloroform/MeOH mixture (2:1 v/v, 3 mL) containing internal standards. The organic phase was collected, dried under nitrogen, and dissolved in chloroform/MeOH (1:3 v/v) for LC-MS analyses. Ceramides, sphingosine and sphinganine were analyzed by LC-MS/MS, using a Waters Acquity UPLC coupled with a Waters Xevo TQMS and interfaced with ESI. Separation was done on a Waters Acquity BEH C18 1.7 μm column (2.1×50 mm) at 60° C. A step gradient of 0.1% formic acid in acetonitrile/water (20:80 v/v) as solvent A and 0.1 formic acid in acetonitrile/isopropyl alcohol (20:80 v/v) as solvent B was applied at a flow rate of 0.4 mL/min. Detection was in the positive ionization mode. Capillary voltage was 3.5 kV and cone voltage was 25 V. The source temperature and desolvation temperatures were set at 120° C. and 600° C. respectively. […]
Tissue-derived ceramides were identified by comparison of their LC retention times and MS^2 fragmentation patterns with those of authentic standards (Avanti Polar Lipids). Extracted ion chromatograms were used to quantify myristoyl ceramide (C14:0, m/z 510.5>492.5>264.3), palmitoyl ceramide (C16:0, m/z 538.5>520.3>264.3), stearoyl ceramide (C18:0 m/z 566.5>548.3>264.3), lignoceroyl ceramide (C24:0 m/z 650.5>632.3>264.3), nervonoyl ceramide (C24:1 m/z 648.5>630.3>264.3) and using lauroyl ceramide standard (m/z 482.5>464.5>264.3). […]

T1 sequence (Q13510 22-142): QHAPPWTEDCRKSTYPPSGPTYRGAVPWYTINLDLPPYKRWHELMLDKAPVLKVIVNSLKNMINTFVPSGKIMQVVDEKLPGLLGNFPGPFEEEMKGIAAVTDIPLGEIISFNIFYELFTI
T1 sequence (Q13510 143-395): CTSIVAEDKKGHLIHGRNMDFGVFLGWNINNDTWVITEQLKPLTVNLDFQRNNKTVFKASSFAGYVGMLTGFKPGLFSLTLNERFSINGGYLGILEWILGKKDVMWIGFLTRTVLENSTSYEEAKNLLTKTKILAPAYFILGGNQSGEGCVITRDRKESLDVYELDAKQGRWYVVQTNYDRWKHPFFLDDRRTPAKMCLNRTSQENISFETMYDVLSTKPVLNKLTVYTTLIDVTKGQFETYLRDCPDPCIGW
Sequence of caspase-3 (h) (P42574 29-175): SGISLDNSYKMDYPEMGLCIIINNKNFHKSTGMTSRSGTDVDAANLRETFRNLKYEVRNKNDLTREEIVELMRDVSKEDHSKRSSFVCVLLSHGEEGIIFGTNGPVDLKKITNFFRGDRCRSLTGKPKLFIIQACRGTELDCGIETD
Sequence of caspase-3 (h) (P42574 176-277): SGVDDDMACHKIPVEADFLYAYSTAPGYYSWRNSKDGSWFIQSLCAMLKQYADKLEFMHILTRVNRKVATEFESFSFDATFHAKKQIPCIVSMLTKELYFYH
Sequence of sPLA2 (h) (type V) (P39877 21-138): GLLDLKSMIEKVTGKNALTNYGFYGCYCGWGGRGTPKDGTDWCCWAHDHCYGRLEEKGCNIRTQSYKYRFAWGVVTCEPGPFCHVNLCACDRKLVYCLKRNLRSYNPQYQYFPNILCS
Sequence of COX1 (h) (P23219 24-599): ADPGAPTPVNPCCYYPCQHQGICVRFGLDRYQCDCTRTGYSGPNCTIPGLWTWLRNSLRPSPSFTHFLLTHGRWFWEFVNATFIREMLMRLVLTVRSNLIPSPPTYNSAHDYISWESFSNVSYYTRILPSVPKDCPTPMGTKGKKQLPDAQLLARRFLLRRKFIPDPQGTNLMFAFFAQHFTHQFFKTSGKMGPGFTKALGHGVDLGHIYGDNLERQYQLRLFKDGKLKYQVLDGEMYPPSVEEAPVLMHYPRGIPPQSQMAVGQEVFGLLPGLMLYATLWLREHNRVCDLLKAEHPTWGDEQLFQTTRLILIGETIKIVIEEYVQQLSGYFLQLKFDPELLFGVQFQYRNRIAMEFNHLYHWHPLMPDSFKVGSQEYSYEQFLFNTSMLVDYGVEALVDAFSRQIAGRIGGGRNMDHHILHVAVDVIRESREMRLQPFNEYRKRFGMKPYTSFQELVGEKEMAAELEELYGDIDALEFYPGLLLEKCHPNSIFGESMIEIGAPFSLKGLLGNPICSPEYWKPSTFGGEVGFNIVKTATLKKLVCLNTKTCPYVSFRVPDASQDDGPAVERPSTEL
Source text for SW403 cells: Combinatory index calculation of cell viability data analyzed with CompuSyn Software. The resulting combination index (CI) offers quantitative definition for additive effect (CI=1), synergism (CI<1), and antagonism (CI>1) in drug combinations. Results are expressed as mean±s.e.m. (n=8-16) of three independent experiments.
Finally, the CellTiter-Glo® Luminescent Cell Viability Assay can be used to determine the number of viable cells in culture based on quantitation of the ATP present, which signals the presence of metabolically active cells. Briefly, a volume of CellTiter-Glo® Reagent equal to the volume of cell culture medium present in each well is added to 96-well plates after drug treatment. Contents are mixed for 2 minutes on an orbital shaker to induce cell lysis and plate was incubated at room temperature for 10 minutes to stabilize signal before reading luminescence.
The compounds were added to the cultures once every 24 hours over a period of 72 hours and the effects of the combined treatments were evaluated using CompuSyn Software.

Row | Structure (SMILES) | inhibition at 10 µM (sPLA2 (h) (type V)) [%] | inhibition at 10 µM (COX1 (h)) [%] | inhibition at 10 µM (caspase-3 (h)) [%] | activity towards the off-target enzyme set [1] | interaction with 5-FU on SW403 cell viability (combinatory index analysis) (SW403 cells) | AC activity (AC [2]) | AC activity (AC [3]) | duration of effects on ceramide levels (MeWo cells; MeWo cells (high AC expression)) | di-hydro ceramide species levels (MeWo cells; MeWo cells) | ceramide species levels (cer(d18:1/14:0), cer(d18:1/16:0), cer(d18:1/18:0), cer(d18:1/24:1)) (MeWo cells; MeWo cells, LC/MS)
1 | O=C(NCCCCc1ccccc1)n1c(=O)oc2cc(-c3ccc(F)cc3)ccc21 [Example 25, 6-(4-Fluorophenyl)-2-oxo-N-(4-phenylbutyl)-1,3-benzoxazole-3-carboxamide] | 1.1 | -6.1 | 1.9 | has not any significant activity | acted synergistically with 5-FU | – | – | – | – | –
2 | O=C(NCCCCc1ccccc1)n1c(=O)oc2cc(Br)ccc21 [Example 7, 6-Bromo-2-oxo-N-(4-phenylbutyl)-1,3-benzoxazole-3-carboxamide] | – | – | – | – | – | reduction in AC activity | reduction in AC activity | recovered the initial phenotype after 24 hours | significant increase in all di-hydro ceramide species analyzed | intracellular accumulation of various ceramide species

From patent US10226452B2, “Benzoxazolone derivatives as acid ceramidase inhibitors, and their use as medicaments” (FONDAZIONE ISTITUTO ITALIANO DI TECNOLOGIA, priority 2014, dated 2019)
